Experimental data: patent US10611740B2, “Aryl dihydro-2H-benzo[b][1,4]oxazine sulfonamide and related compounds for use as agonists of RORγ and the treatment of disease” (Lycera Corporation, priority 2015, dated 2020)

Tests used:
[1] = target: T1, RORγ-LBD (Homo sapiens, UniProt P51449); test: RORγ-Ligand Binding Domain (LBD) TR-FRET Assay; format: biochemical;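 as to TR-FRET Assay Max Response: 665/615 nm ratio relative to signal without ursolic acid or compound set at 100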
T1 construct: made in house; host or cells: SF9 cells (baculovirus)
T1 sequence (P51449 269-508 limits assumed): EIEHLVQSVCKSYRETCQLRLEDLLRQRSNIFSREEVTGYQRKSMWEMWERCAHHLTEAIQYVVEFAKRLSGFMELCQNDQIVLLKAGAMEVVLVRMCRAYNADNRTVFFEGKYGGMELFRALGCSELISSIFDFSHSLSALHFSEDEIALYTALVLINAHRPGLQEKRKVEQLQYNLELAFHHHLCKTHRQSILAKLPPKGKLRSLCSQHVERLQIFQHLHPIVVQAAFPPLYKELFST
Method in brief: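 TR-FRET read-out using a biotin-tagged SRC1 coactivator LXXLL peptide (200 nM final), with the antagonist ursolic acid present at 2 μM final. Receptor is His-tagged LBD expressed in SF9 cells, ~3 nM final in pH 7.0 Tris/KCl/EDTA/DTT/BSA buffer; compounds in 1% DMSO final.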

[2] = target: T2, Gal4-RORγ-LBD (Homo sapiens, UniProt P51449); test: Gal4-RORγ Luciferase Reporter Assay in HEK-293T Cells; format: cell-based; settings: HEK-293 cells, luciferase reporter, with 2 μM ursolic acid
T2 construct: expressed in transfected cells; host or cells: HEK-293 cells (pcDNA3.1neo plasmid)
T2 sequence (P51449 269-508 limits assumed): T1 sequence (P51449 269-508 limits assumed)
Method in brief: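 Luminescence read-out (One-Glo, 10 min RT) after overnight compound exposure at 37 °C in HEK-293 cells carrying Gal4-RORγ-LBD plus a Gal4-luciferase reporter, in the presence of 2 μM ursolic acid. Max Response is the upper plateau from a 4-parameter logistic fit, normalized to untreated signal = 100.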

Row | SMILES | EC50 [1] [µM] | TR-FRET Assay Max Response [1] | EC50 [2] [µM] | Gal4-RORγ Assay Max Response [2]
1 | COc1cccc(-c2ccc3c(c2)N(S(=O)(=O)c2cccc(C(F)(F)F)c2)C[C@H](CCNC(=O)C(C)(C)O)O3)c1 [Compound 30E, (S)-2-hydroxy-N-(2-(6-(3-methoxyphenyl)-4-((3-(trifluoromethyl)phenyl)sulfonyl)-3,4-dihydro-2H-benzo[6][1,4]oxazin-2-yl)ethyl)-2-methylpropanamide] | < 0.5 | **** (The symbol “****” indicates a value greater than 200) | < 0.5 | ** (The symbol “**” indicates a value in the range of greater than 90 to 150)
2 | COc1cc(F)cc(-c2ccc3c(c2)N(S(=O)(=O)c2cccc(C(F)(F)F)c2)C[C@H](CCNC(=O)C(C)(C)O)O3)c1F [Compound 30F, (S)-N-(2-(6-(2,5-difluoro-3-methoxyphenyl)-4-((3-(trifluoromethyl)phenyl)sulfonyl)-3,4-dihydro-2H-benzo[b][1,4]oxazin-2-yl)ethyl)-2-hydroxy-2-methylpropanamide] | < 0.5 | **** (The symbol “****” indicates a value greater than 200) | < 0.5 | * (The symbol “*” indicates a value in the range of 25 to 90)
3 | CC(C)c1cccc(S(=O)(=O)N2C[C@H](CCNC(=O)C(C)(C)O)Oc3ccc(-c4cccc(N(C)C)n4)cc32)c1 [Compound 30G, (S)-N-(2-(6-(6-(dimethylamino)-pyridin-2-yl)-4-((3-isopropyl-phenyl)sulfonyl)-3.,4-dihydro-2H-benzo[b][1,4]oxazin-2-yl)ethyl)-2-hydroxy-2-methylpropanamide] | < 0.5 | **** (The symbol “****” indicates a value greater than 200) | < 0.5 | * (The symbol “*” indicates a value in the range of 25 to 90)
4 | CN(C)c1cccc(-c2ccc3c(c2)N(S(=O)(=O)c2cccc(C(F)(F)F)c2)C[C@H](CNC(=O)C(C)(C)O)O3)n1 [Compound 30H, (S)-N-((6-(6-(dimethylamino)-pyridin-2-yl)-4-((3-(trifluoromethyl)phenyl)sulfonyl)-3,4-dihydro-2H-benzo[b][1,4]oxazin-2-yl)methyl)-2-hydroxy-2-methylpropanamide] | < 0.5 | **** (The symbol “****” indicates a value greater than 200) | < 0.5 | * (The symbol “*” indicates a value in the range of 25 to 90)
5 | CC(C)(O)C(=O)NC[C@H]1CN(S(=O)(=O)c2cccc(C(F)(F)F)c2)c2cc(-c3cccc(C(F)(F)F)n3)ccc2O1 [Compound 30I, (S)-2-hydroxy-2-methyl-N-((4-((3-(trifluoromethyl)phenyl)-sulfonyl)-6-(6-(trifluoromethyl)-pyridin-2-yl)-3,4-dihydro-2H-benzo[b][1,4]oxazin-2-yl)methyl)propanamide] | < 0.5 | **** (The symbol “****” indicates a value greater than 200) | < 0.5 | * (The symbol “*” indicates a value in the range of 25 to 90)
6 | CC(C)c1cccc(S(=O)(=O)N2C[C@H](CNC(=O)C(C)(C)O)Oc3ccc(-c4cccc(N(C)C)n4)cc32)c1 [Compound 30J, (S)-N-((6-(6-(dimethylamino)-pyridin-2-yl)-4-((3-isopropylphenyl)sulfonyl)-3,4-dihydro-2H-benzo[b][1,4]oxazin-2-yl)methyl)-2-hydroxy-2-methylpropanamide] | < 0.5 | **** (The symbol “****” indicates a value greater than 200) | < 0.5 | * (The symbol “*” indicates a value in the range of 25 to 90)
7 | CC(C)c1cccc(S(=O)(=O)N2C[C@H](CNC(=O)C(C)(C)O)Oc3ccc(-c4cc(F)ccc4F)cc32)c1 [Compound 30K, (S)-N-((6-(2,5-difluorophenyl)-4-((3-isopropylphenyl)sulfonyl)-3,4-dihydro-2H-benzo[b][1,4]-oxazin-2-yl)methyl)-2-hydroxy-2-methylpropanamide] | < 0.5 | **** (The symbol “****” indicates a value greater than 200) | < 0.5 | * (The symbol “*” indicates a value in the range of 25 to 90)
8 | COc1cc(F)cc(-c2ccc3c(c2)N(S(=O)(=O)c2cccc(C(F)(F)F)c2)C[C@H](CNC(=O)C(C)(C)O)O3)c1F [Compound 30L, (S)-N-((6-(2,5-difluoro-3-methoxyphenyl)-4-((3-(trifluoromethyl)phenyl)sulfonyl)-3,4-dihydro-2H-benzo[b][1,4]oxazin-2-yl)methyl)-2-hydroxy-2-methylpropanamide] | < 0.5 | **** (The symbol “****” indicates a value greater than 200) | < 0.5 | * (The symbol “*” indicates a value in the range of 25 to 90)
9 | COc1cc(S(=O)(=O)N2C[C@H](CCNC(=O)C(C)(C)O)Oc3ccc(-c4cc(F)ccc4F)cc32)ccc1F [Compound 30M, (S)-N-(2-(6-(2,5-difluorophenyl)-4-((4-fluoro-3-methoxyphenyl)-sulfonyl)-3,4-dihydro-2H-benzo[b][1,4]oxazin-2-yl)ethyl)-2-hydroxy-2-methylpropanamide] | < 0.5 | *** (The symbol “***” indicates a value in the range of greater than 150 to 200) | < 0.5 | * (The symbol “*” indicates a value in the range of 25 to 90)
10 | COc1cccc(-c2ccc3c(c2)N(S(=O)(=O)c2ccc(F)c(OC)c2)C[C@H](CCNC(=O)C(C)(C)O)O3)c1 [Compound 30N, (S)-N-(2-(4-((4-fluoro-3-methoxyphenyl)sulfonyl)-6-(3-methoxyphenyl)-3,4-dihydro-2H-benzo[b][1,4]oxazin-2-yl)ethyl)-2-hydroxy-2-methylpropanamide] | < 0.5 | *** (The symbol “***” indicates a value in the range of greater than 150 to 200) | < 0.5 | * (The symbol “*” indicates a value in the range of 25 to 90)
11 | COc1cc(S(=O)(=O)N2C[C@H](CCNC(=O)C(C)(C)O)Oc3ccc(-c4cccc(C(F)(F)F)n4)cc32)ccc1F [Compound 30O, (S)-N-(2-(4-((4-fluoro-3-methoxyphenyl)sulfonyl)-6-(6-(trifluoromethyl)pyridin-2-yl)-3,4-dihydro-2H-benzo[b][1,4]-oxazin-2-yl)ethyl)-2-hydroxy-2-methylpropanamide] | < 0.5 | **** (The symbol “****” indicates a value greater than 200) | < 0.5 | ** (The symbol “**” indicates a value in the range of greater than 90 to 150)
12 | CC(C)(O)C(=O)NCC[C@H]1CN(S(=O)(=O)c2cccc(OC(F)F)c2)c2cc(-c3cc(F)ccc3F)ccc2O1 [Compound 30P, (S)-N-(2-(4-((3-(difluoro-methoxy)phenyl)sulfonyl)-6-(2,5-difluorophenyl)-3,4-dihydro-2H-benzo[b][1,4]oxazin-2-yl)ethyl)-2-hydroxy-2-methylpropanamide] | < 0.5 | **** (The symbol “****” indicates a value greater than 200) | < 0.5 | ** (The symbol “**” indicates a value in the range of greater than 90 to 150)
13 | COc1cc(S(=O)(=O)N2C[C@H](CNC(=O)C(C)(C)O)Oc3ccc(-c4cc(F)ccc4F)cc32)ccc1F [Compound 30Q, (S)-N-((6-(2,5-difluorophenyl)-4-((4-fluoro-3-methoxyphenyl)-sulfonyl)-3,4-dihydro-2H-benzo[b][1,4]oxazin-2-yl)methyl)-2-hydroxy-2-methylpropanamide] | < 0.5 | **** (The symbol “****” indicates a value greater than 200) | < 0.5 | * (The symbol “*” indicates a value in the range of 25 to 90)
14 | CC(C)(O)C(=O)NC[C@H]1CN(S(=O)(=O)c2cccc(OC(F)F)c2)c2cc(-c3cc(F)ccc3F)ccc2O1 [Compound 30R, (S)-N-((4-((3-(difluoromethoxy)-phenyl)sulfonyl)-6-(2,5-difluorophenyl)-3,4-dihydro-2H-benzo[b][1,4]oxazin-2-yl)methyl)-2-hydroxy-2-methylpropanamide] | < 0.5 | **** (The symbol “****” indicates a value greater than 200) | < 0.5 | ** (The symbol “**” indicates a value in the range of greater than 90 to 150)
15 | COc1cccc(-c2ccc3c(c2)N(S(=O)(=O)c2ccc(F)c(OC)c2)C[C@H](CNC(=O)C(C)(C)O)O3)c1 [Compound 30S, (S)-N-((4-((4-fluoro-3-methoxyphenyl)sulfonyl)-6-(3-methoxyphenyl)-3,4-dihydro-2H-benzo[b][1,4]oxazin-2-yl)methyl)-2-hydroxy-2-methylpropanamide] | < 0.5 | **** (The symbol “****” indicates a value greater than 200) | < 0.5 | * (The symbol “*” indicates a value in the range of 25 to 90)
